Inconclusive results are not listed.
Test system: M. tuberculosis H37Rv growth inhibition, 7H9 media
Assay: M. tuberculosis growth inhibition, HTS (AID 449762);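 further: bacterial growth assessed after seven days of incubation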
Conditions: for IC90: measured here: IC90 growth inhibition

CCN(CC)c1nc(NN)nc(Nc2ccc(C)c(Cl)c2)n1
IC50: 2.85 µM
IC90: 6.27 µM

Nc1ccc(Oc2ccc(F)cc2)nc1
IC50: 60.6 µM
IC90: 90.1 µM

C=CCN(CC(=O)c1sc(C(=O)OCC)nc1C)c1cccc(Br)c1
IC50: 19.4 µM
IC90: 28.8 µM

CCOC(=O)CSc1nn(-c2ccccc2)c(=S)s1
IC50: 4.75 µM
IC90: 9.22 µM

O=c1[nH]c(=O)n(Cc2ccccc2)c2nc(-c3ccc(Oc4ccc(F)cc4)c([N+](=O)[O-])c3)n(CCO)c12
IC50: 24.4 µM
IC90: > 100 µM

C/C(=N\NC(=O)COc1ccc(C)cc1Br)c1cc([N+](=O)[O-])cs1
IC50: 4.07 µM
IC90: 34.1 µM

N#Cc1nc(-c2ccc(OCc3ccccc3)cc2)oc1NCCCn1ccnc1
IC50: 26.7 µM
IC90: 35.5 µM

CC(C)(Oc1ccc(Cl)cc1)C(=O)OCC(=O)N1CCN(c2ccccc2)CC1
IC50: 30.5 µM
IC90: 98.2 µM

COc1ccc(-n2nnnc2S(=O)(=O)CC(=O)N2CCCCC2)cc1
IC50: 12.7 µM
IC90: 27 µM

O=C(c1ccccc1)c1nn(-c2ccc(Cl)cc2)c(=O)cc1C(F)(F)F
IC50: 12 µM
IC90: 19.6 µM

CC1(C)C2CCC1(C)C(OCC[N+](C)(C)CC(=O)OC1CCCCC1)C2 (stereo not given)
IC50: 10.9 µM
IC90: 12.2 µM

O=C(CCC(=O)NC1CCCCCCC1)Nc1nnc(C(F)(F)F)s1
IC50: 12 µM
IC90: 13.9 µM

Cc1cccc(CNc2ncnc3ccc(-c4ccc5c(c4)OCCO5)cc23)c1
IC50: 5.93 µM
IC90: 6.77 µM

COc1ccccc1N1CCN(CCCCOc2cccc3ccccc23)CC1
IC50: 34 µM
IC90: 44.5 µM

Cc1[nH]c2ccccc2c1C(=O)COC(=O)c1ccc([N+](=O)[O-])s1
IC50: 0.59 µM
IC90: 2 µM

CSCCC(=O)N1CCCC(CNC(=O)c2ccc(-c3ccccc3)cc2)C1 (stereo not given)
IC50: 39.1 µM
IC90: 87.8 µM

CCOC(=O)c1sc(C)c2c(=O)n(CC(=O)c3ccc(Br)cc3)nnc12
IC50: 74.3 µM
IC90: > 100 µM

C=CCN1CC[C@]23c4c5ccc(O)c4O[C@H]2/C(=N/NC(=O)c2ccccc2)CC[C@@]3(O)[C@H]1C5
IC50: 79.5 µM
IC90: > 100 µM

Cn1cc(C(=O)c2ccc(Cl)cc2)cc1-c1nc2ccccc2n1C
IC50: 13.4 µM
IC90: 27.1 µM

Cc1ccc(-c2noc(-c3cc4ccccc4oc3=O)n2)cc1
IC50: 6.7 µM
IC90: > 100 µM

Cc1cccc2c1N(CCCOc1ccc(C(C)(C)C)cc1)C(=O)C2=O
IC50: 17.3 µM
IC90: 20.7 µM

CCCNC(=S)Nc1ccc(Nc2ccccc2)cc1
IC50: 31.7 µM
IC90: 52 µM

O=C(COC(=O)c1cccs1)c1ccccc1
IC50: 45 µM
IC90: > 100 µM

Cc1nn(-c2ccccc2)c2c1C(c1ccc([N+](=O)[O-])cc1)N1C(=N2)C(=O)Nc2ccccc21 (stereo not given)
IC50: 41.4 µM
IC90: > 100 µM

Ic1ccccc1CN[C@@H]1C2CCN(CC2)[C@@H]1C(c1ccccc1)c1ccccc1
IC50: 29.5 µM
IC90: 38.4 µM

O=C(Nc1nnc(-c2ccccc2)o1)c1cc(-c2cccs2)nc2ccccc12
IC50: 0.89 µM
IC90: 2.25 µM

CCCCn1cnc2c(c(-c3ccccc3)c(-c3ccccc3)n2Cc2ccco2)c1=N
IC50: 75.3 µM
IC90: 97.4 µM

O=C1C(Cl)=C(N2CCOCC2)C(=O)N1c1cccc(Cl)c1
IC50: 3.48 µM
IC90: 7.3 µM

O=C(CNC(=O)c1ccc(Cl)cc1)c1ccc(Cl)cc1
IC50: 96.6 µM
IC90: > 100 µM

Cc1ccc(-c2nc3ccsc3c(=O)o2)cc1
IC50: 0.61 µM
IC90: > 100 µM

CC1(C)Cc2c(sc(NC(=O)c3ccc(C(=O)c4ccccc4)cc3)c2C(N)=O)C(C)(C)N1
IC50: 22.5 µM
IC90: > 100 µM

CN(C)S(=O)(=O)c1cccc(NC(=O)CSc2cccc3cccnc23)c1
IC50: 58.6 µM
IC90: 65.1 µM

CN(C)CCCNC(=O)c1ccc(-c2nc(-c3ccc(Cl)cc3)cs2)cc1
IC50: 27.8 µM
IC90: 42.3 µM

CCOC(=O)C(C)Sc1ncnc2c1nnn2-c1ccc(F)cc1 (stereo not given)
IC50: 1.19 µM
IC90: 7.38 µM

CC(C(c1ccc2c(c1)OCO2)c1c(N)n(C)c(=O)n(C)c1=O)[N+](=O)[O-] (stereo not given)
IC50: 2.54 µM
IC90: 6.08 µM

— PubChem BioAssay AID449762 (Southern Research Specialized Biocontainment Screening …, 2010)
